Assay results: ChEMBL document CHEMBL6182879, “Synthesis and biological evaluation of novel 4-Arylaminoquinolines derivatives as EGFR/HDAC inhibitors” (Bioorg Med Chem Lett, 2025)

Test: Cytotoxicity against human 16-HBE cells by CCK8 assay
Conditions: 16hbe14o-

O=C(CCCCCCC(=O)Nc1ccccc1)NO [VORINOSTAT]
IC50: 50.6 µM
